Test results reported in article PMC7814170 (Molecular Biotechnology, 2021).

system: SARS-CoV-2 main protease; test: not given; details: read-out: EC50 measured by FRET-based enzymatic assay; cited from earlier work

Row | SMILES | EC50 [µM]
1 | CC(C)(C)NC(=O)N[C@H](C(=O)N1C[C@H]2[C@@H]([C@H]1C(=O)NC(CC1CCC1)C(=O)C(N)=O)C2(C)C)C(C)(C)C (stereo partly shown) [Boceprevir, boceprevir, reference compound] | […]

biological target: SARS-CoV-2 main protease 3CLpro (Severe acute respiratory syndrome coronavirus 2, UniProt P0DTD1); test: cell-based; details: read-out: inhibition to viral protease (reduction in GFP fluorescent activity)

Row | SMILES | inhibition at 40 µM [%]
2 | O=C1c2ccccc2NC(c2cc(Br)ccc2O)N1N=Cc1cc(Br)ccc1O (stereo not shown) [QZ1, 3-(5-Bromo-2-hydroxybenzylideneamino)-2-(5-bromo-2-hydroxyphenyl)-2,3-dihydroquinazoline-4 (1H)-one] | 20 to 50
3 | O=C1c2ccccc2NC(c2cc([N+](=O)[O-])ccc2O)N1N=Cc1cc([N+](=O)[O-])ccc1O (stereo not shown) [QZ5, 3-(5-Nitro-2-hydroxybenzylideneamino)-2(5-nitro-2-hydroxyphenyl)-2,3-dihydroquinazoline-4(1H)-one] | 20 to 50
4 | COc1ccc(O)c(C=NN2C(=O)c3ccccc3NC2c2cc(OC)ccc2O)c1 (stereo not shown) [QZ4, 3-(5-Methoxy-2-hydroxybenzylideneamino)-2(5-methoxy-2-hydroxyphenyl)-2,3-dihydroquinazoline-4(1H)-one] | ~80
5 | COc1cc(Br)cc(C=NN2C(=O)c3ccccc3NC2c2cc(Br)cc(OC)c2O)c1O (stereo not shown) [QZ3, 3-(5-Bromo-2-hydroxy-3-methoxybenzylideneamino)-2-(5-bromo-2-hydroxy-3-methoxyphenyl)-2,3-dihydroquinazoline-4(1H)-one] | 20 to 50
6 | CC(C)(C)NC(=O)N[C@H](C(=O)N1C[C@H]2[C@@H]([C@H]1C(=O)NC(CC1CCC1)C(=O)C(N)=O)C2(C)C)C(C)(C)C (stereo partly shown) [Boceprevir, boceprevir, reference compound] | 80
7 | O=C1c2ccccc2NC(c2cc(Cl)ccc2O)N1N=Cc1cc(Cl)ccc1O (stereo not shown) [QZ2, 3-[(5-Chloro-2-hydroxy-benzylidene)-amino]-2-(5-chloro-2-hydroxy-phenyl)-2,3-dihydroquinazoline-4(1H)-one] | 20 to 50
